Literature values, collected in patent US20240180165A1, “ACTIVATION OF BIONEMATICIDE AND PLANT GROWTH PROMOTING FUNCTIONS IN A BIOTECHNOLOGICAL SOLUTION COMPRISING TWO OR MORE BACILLUS SPECIES AND ALLICIN; INDUSTRIAL PROCESS AND APPLICATION THEREOF” (TOTAL BIOTECNOLOGIA INDÚSTRIA E COMÉRICO S/A, priority 2021, published 2024).

System: Gram-negative and Gram-positive bacteria, including the Bacillus genus
Settings: even at low concentrations (UM)

Compound: C=CCS[S+]([O-])CC=C (stereo not shown) [allicin]
- antimicrobial activity: broad antimicrobial activity
